Species: Rattus norvegicus
Experiment: Open TG-GATES - Regimen: Single
Type: toxicity, organism-based, Sprague-Dawley
Set-up: regimen Single, gender Male, age 6 weeks
Conditions: in vivo, po, 100 mg/kg, route gavage, dose level Low; for ALP / ALT / AST / BUN / CRE / Ca / Cl / DBIL / GLC / IP / K / LDH / Na / PL / RALB / TBIL / TC / TG / TP / gamma-GTP: tissue Plasma

SMILES: O=C(O)c1cccnc1 [NIACIN]
- Bas (3 h, tissue Blood): 0%
- Eos (3 h, tissue Blood): 1%
- Fbg (3 h, tissue Blood): 311 mg/dL
- Hb (3 h, tissue Blood): 13.6 g/dL
- Ht (3 h, tissue Blood): 40.7%
- Lym (3 h, tissue Blood): 78.4%
- MCHC (3 h, tissue Blood): 33.4%
- MCV (3 h, tissue Blood): 65.5 fL
- Mono (3 h, tissue Blood): 2.6%
- Neu (3 h, tissue Blood): 16.6%
- PT (3 h, tissue Blood): 16.2 s
- Plat (3 h, tissue Blood): 118.2 x10_4/uL
- RBC (3 h, tissue Blood): 621.4 x10_4/ul
- Ret (3 h, tissue Blood): 8.2%
- WBC (3 h, tissue Blood): 107.6 x10_2/uL
- ALP (3 h): 1552.4 IU/L
- ALT (3 h): 42.2 IU/L
- AST (3 h): 79.8 IU/L
- BUN (3 h): 13.6 mg/dL
- CRE (3 h): 0.2 mg/dL
- Ca (3 h): 10.8 mg/dL
- Cl (3 h): 105.4 meq/L
- DBIL (3 h): 0 mg/dL
- GLC (3 h): 183 mg/dL
- IP (3 h): 8.7 mg/dL
- K (3 h): 3.9 meq/L
- LDH (3 h): 196.8 IU/L
- Na (3 h): 141 meq/L
- PL (3 h): 118.4 mg/dL
- RALB (3 h): 3 g/dL
- TBIL (3 h): 0.008 mg/dL
- TC (3 h): 71 mg/dL
- TG (3 h): 27.8 mg/dL
- TP (3 h): 5.6 g/dL
- gamma-GTP (3 h): 1.4 IU/L
- APTT (6 h, tissue Blood): 22.5 s
- Bas (6 h, tissue Blood): 0%
- Eos (6 h, tissue Blood): 1%
- Fbg (6 h, tissue Blood): 314 mg/dL
- Hb (6 h, tissue Blood): 13.4 g/dL
- Ht (6 h, tissue Blood): 40%
- Lym (6 h, tissue Blood): 78.4%
- MCHC (6 h, tissue Blood): 33.4%
- Mono (6 h, tissue Blood): 3.4%
- Neu (6 h, tissue Blood): 16.2%
- PT (6 h, tissue Blood): 16.5 s
- Plat (6 h, tissue Blood): 119.1 x10_4/uL
- RBC (6 h, tissue Blood): 626.8 x10_4/ul
- Ret (6 h, tissue Blood): 8%
- WBC (6 h, tissue Blood): 87.9 x10_2/uL
- ALP (6 h): 1431.4 IU/L
- ALT (6 h): 38.8 IU/L
- AST (6 h): 69.8 IU/L
- BUN (6 h): 12.4 mg/dL
- CRE (6 h): 0.2 mg/dL
- Ca (6 h): 10.9 mg/dL
- Cl (6 h): 105 meq/L
- DBIL (6 h): 0.002 mg/dL
- GLC (6 h): 186 mg/dL
- IP (6 h): 8.9 mg/dL
- K (6 h): 3.8 meq/L
- LDH (6 h): 156.8 IU/L
- Na (6 h): 139.8 meq/L
- PL (6 h): 115 mg/dL
- RALB (6 h): 3 g/dL
- TBIL (6 h): 0.008 mg/dL
- TC (6 h): 64.4 mg/dL
- TG (6 h): 37.2 mg/dL
- TP (6 h): 5.5 g/dL
- gamma-GTP (6 h): 1.6 IU/L
- Bas (9 h, tissue Blood): 0%
- Eos (9 h, tissue Blood): 0.8%
- Fbg (9 h, tissue Blood): 305.4 mg/dL
- Hb (9 h, tissue Blood): 13.5 g/dL
- Ht (9 h, tissue Blood): 40.6%
- Lym (9 h, tissue Blood): 81.6%
- MCHC (9 h, tissue Blood): 33.3%
- MCV (9 h, tissue Blood): 65.6 fL
- Mono (9 h, tissue Blood): 2%
- Neu (9 h, tissue Blood): 15.2%
- PT (9 h, tissue Blood): 15.6 s
- Plat (9 h, tissue Blood): 126.3 x10_4/uL
- RBC (9 h, tissue Blood): 618.6 x10_4/ul
- Ret (9 h, tissue Blood): 8.4%
- WBC (9 h, tissue Blood): 88.6 x10_2/uL
- ALP (9 h): 1314.4 IU/L
- ALT (9 h): 38.8 IU/L
- AST (9 h): 70.4 IU/L
- CRE (9 h): 0.2 mg/dL
- Ca (9 h): 10.8 mg/dL
- Cl (9 h): 105.4 meq/L
- DBIL (9 h): 0.002 mg/dL
- GLC (9 h): 182.8 mg/dL
- IP (9 h): 8.9 mg/dL
- K (9 h): 4.1 meq/L
- LDH (9 h): 161.4 IU/L
- Na (9 h): 140.6 meq/L
- PL (9 h): 134 mg/dL
- RALB (9 h): 2.9 g/dL
- TBIL (9 h): 0.008 mg/dL
- TC (9 h): 73 mg/dL
- TG (9 h): 77 mg/dL
- TP (9 h): 5.5 g/dL
- gamma-GTP (9 h): 1.6 IU/L
- Bas (24 h, tissue Blood): 0%
- Eos (24 h, tissue Blood): 1%
- Fbg (24 h, tissue Blood): 327.8 mg/dL
- Hb (24 h, tissue Blood): 13.7 g/dL
- Ht (24 h, tissue Blood): 40.6%
- Lym (24 h, tissue Blood): 77.8%
- MCHC (24 h, tissue Blood): 33.6%
- MCV (24 h, tissue Blood): 64.8 fL
- Mono (24 h, tissue Blood): 3%
- Neu (24 h, tissue Blood): 17.2%
- PT (24 h, tissue Blood): 16 s
- Plat (24 h, tissue Blood): 109.3 x10_4/uL
- RBC (24 h, tissue Blood): 627.6 x10_4/ul
- Ret (24 h, tissue Blood): 7.6%
- WBC (24 h, tissue Blood): 96.3 x10_2/uL
- ALP (24 h): 1716.6 IU/L
- ALT (24 h): 41.6 IU/L
- AST (24 h): 67.2 IU/L
- BUN (24 h): 16.2 mg/dL
- CRE (24 h): 0.2 mg/dL
- Ca (24 h): 10.5 mg/dL
- Cl (24 h): 104.6 meq/L
- DBIL (24 h): 0.002 mg/dL
- GLC (24 h): 192 mg/dL
- IP (24 h): 7.6 mg/dL
- K (24 h): 4.1 meq/L
- LDH (24 h): 155.4 IU/L
- Na (24 h): 139.6 meq/L
- PL (24 h): 154.2 mg/dL
- RALB (24 h): 3.1 g/dL
- TBIL (24 h): 0 mg/dL
- TC (24 h): 75.2 mg/dL
- TG (24 h): 158.4 mg/dL
- TP (24 h): 5.6 g/dL

Reference: ChEMBL document CHEMBL3885861, “Open TG-GATES”
